This is an account of results in patent publication US20050118226A1, “Methods for treating ACAT-related diseases” (priority 2003, published 2005).

Each structure is given as a SMILES string. Entries after “also recorded” stand apart in the source; their conditions may differ.

Data set [1] has as its target T1, purified recombinant human BACE1 (Homo sapiens, UniProt P56817).
T1 construct: purchased R&D systems
Nature of the data set: In vitro fluorometric BACE1 activity assay. Conditions: increasing amounts of compound, 2 hours. It is filed as biochemical. As for the experimental part: A fluorometric β-secretase activity kit was used for detecting BACE1 activity in vitro. Reaction was done according to the manufacturer's instructions with slight modifications. Briefly, 1 μg of purified recombinant human BACE1 (R&D systems) was resuspended in 10 μl of 1× cell extraction buffer (R&D systems) and incubated with EDANS/DABCYL-[…] substrate peptide in the absence or presence of indicated account of CP-113,818 for 2 hours. Released EDANS fluorescence was measured by a fluorescent plate reader (Analyst AD, LJL Biosystems). As a negative control, a specific β-secretase inhibitor, GL-189 (Calbiochem) was added to one of the samples with the indicated concentration.

A further data set addresses Aβ40 (Homo sapiens, UniProt P05067). Nature of the data set: Turbidity assay of Aβ40 aggregation. Conditions: 10 μM, absorbance at 400 nm over four days. As for the experimental part: Aβ40 aggregation was monitored according to the method of Jarrett et al. (Jarrett et al., 1993). Briefly, Aβ40 (100 μg/ml) was incubated at 37° C. in TBS in a 384-well plate (60 μl/well). Well turbidity was monitored for four days by following absorbance at 400 nm. Aβ40 aggregation was promoted by the addition of “aged” (pre-incubated for 2 weeks at room temperature) Aβ42 (Aβ42/Aβ40=1/10) (Jarrett et al., 1993) or Zn/histine buffer (50 μM Zn++in 350 μM histine) (Bush et al., 1994). Absorbance of test wells was blanked on signal from samples without Aβ40. For some experiments, incubation buffers included CP-113,818 (10 μM).

Data set [2] relates to γ-secretase complex components and substrates, BACE1, ApoE. Description: Western blot of γ-secretase components and substrates, BACE1 and ApoE in non-transgenic littermates. The data set is classed as in vivo, mouse. As for the experimental part:
For Western blot analyses, frozen hemispheres of non-transgenic littermates were homogenized in TBS buffer containing 5 mM EDTA, 1 mM 1,10-phenanthroline (ICN Biomedicals), 20 μM ALLN (BioMol) and a protease inhibitor mixture (Roche). Homogenates were centrifuged at 100000 g for 1 hour at +4° C. The supernatants were used for analyses of secreted APP forms and ApoE, while the pellets extracted with the homogenization buffer containing 1% Triton X-100 and 0.2% SDS. 120 μg of total protein were resolved on 4-12% or 12% NuPAGE Bis-Tris gels (Invitrogen) under reducing conditions, and Western blots were performed as described previously (Puglielli et al., 2001). For analysis of Notch-ICD (NICD), 250 μg of total protein was immunoprecipitated with an NICD-specific antibody (cleavage site (Val1744)-specific; Cell Signaling Technology) according to manufacturer's recommendations. Antibodies used for Western blots were R1736 (specific for sAPP-α; a gift from Dr. D. J. Selkoe, Brigham and Women's Hospital, Boston, Mass.), Abl4 (PS 1-NTF; a gift from Dr. S. E. Gandy, Thomas Jefferson University, Philadelphia, Pa.), Pen2 (a gift from Dr. S. S. Sisodia, University of Chicago, Chicago, Ill.), N-Cadherin (C32, C-terminal; BD Transduction Laboratories), ApoE (Santa Cruz Biotechnology), β-tubulin (Sigma), BACE1 and Nicastrin (Affinity BioReagents). Rbt×APP (CTF), 22C11 (APP-NTF) and Rbt×PSI (PS 1-CTF) were from Chemicon International. BACE stainings (N-terminal; Affinity BioReagents) were confirmed with two additional antibodies; Ms×BACE1 (Chemicon International) and BACE (C-terminal; Affinity BioReagents). Densitometric analyses were performed using the QuantityOne software package (Bio-Rad). Statistical significance was determined by Student's t test. For Western blot analyses shown in supplemental figures, neutralized formic acid fractions (approximately 100 μg of total protein) were precipitated by adding 50% trichloroacetic acid to 15.5% final concentration. After 30 min incubation and centrifugation at 4° C., the pellets were solubilized by adding 10 μl of 2M Tris base and 10 μl of 4×LDS-PAGE loading buffer (NuPage, Invitrogen). Before loading, the samples were incubated for 30 min at 37° C., freeze-thawed once and boiled. Western blot analysis was performed as described above.
Our previous cell-based studies have shown that ACAT inhibition reduces Aβ generation and alters APP processing by all three secretases (Puglielli et al., 2001). To determine whether CP-113,818 treatment modified brain APP processing in hAPP mice, we initially resolved formic acid-extracted brain proteins by SDS-PAGE to detect APP and its proteolytic derivatives. […] However, levels of the secreted cleavage products of both α- and β-secretases (sAPP) were reduced by treatment with the ACAT inhibitor albeit not nearly as dramatically as Aβ (FIG. 9). Inhibition of sAPP production in the absence of a change in CTFs was somewhat surprising, and possibly an artifact caused by formic acid extraction. Because tissue from treated hAPP mice had been extracted with formic acid or fixed for histological studies, we looked at levels of APP-CTFs in total brain lysates from the non-transgenic littermates used in the Morris water maze tests. Using non-transgenic animals for these experiments also afforded an assessment of the effects of CP-113,818 on endogenous APP processing. CP-113,818 reduced liver cholesterol/cholesteryl-esters and serum cholesterol of non-transgenic littermates similarly to the transgenic animals shown in FIG. 1C (data not shown). Endogenous mouse APP-CTF levels in brain lysates from CP-113,818-treated animals decreased by 44% when compared to placebo-treated mice (n=8, p<0.005, values normalized to APP holoprotein levels; FIG. 10A, B). We could not resolve C99 and C83 from these samples due to smearing in the low molecular weight range because of high protein load (FIG. 10A). […]

The conditions of data set [3]: rat, in vivo; cited from earlier work.

T1 sequence (P56817 46-501): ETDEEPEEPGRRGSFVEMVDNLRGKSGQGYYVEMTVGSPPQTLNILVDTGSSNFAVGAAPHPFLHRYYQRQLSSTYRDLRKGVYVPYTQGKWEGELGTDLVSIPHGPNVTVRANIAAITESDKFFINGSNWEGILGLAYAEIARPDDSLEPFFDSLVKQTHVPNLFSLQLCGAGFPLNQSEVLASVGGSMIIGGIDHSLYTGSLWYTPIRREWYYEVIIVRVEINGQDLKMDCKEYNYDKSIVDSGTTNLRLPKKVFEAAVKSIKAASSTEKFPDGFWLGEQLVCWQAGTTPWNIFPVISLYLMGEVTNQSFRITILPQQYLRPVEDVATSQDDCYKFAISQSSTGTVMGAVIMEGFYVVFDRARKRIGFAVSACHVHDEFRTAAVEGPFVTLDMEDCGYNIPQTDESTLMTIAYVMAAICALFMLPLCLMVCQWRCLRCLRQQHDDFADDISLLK
Sequence of Aβ40 (P05067 672-711 limits assumed): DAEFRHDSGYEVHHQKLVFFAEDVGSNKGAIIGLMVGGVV

With `CCCCCCCC[C@H](SCCCCCC)C(=O)Nc1c(SC)cc(C)nc1SC` [CP-113,818], in data set [1], the “effect on BACE1 activity in vitro” value is reported as “unaffected; also recorded: no direct effect”. The “effect on metal- or Aβ42-mediated aggregation of Aβ40 in vitro” value at Aβ40 is “failed to directly inhibit; also recorded: does not directly modulate”. In addition, in data set [2] (immunoprecipitated from non-transgenic mouse brain lysates), the “Notch intracellular domain (NICD) levels” value was “statistically unchanged; also recorded: remained unchanged”. In addition, in data set [2] (non-transgenic brain lysates), the BACE protein levels entry was “unchanged; also recorded: did not alter expression levels”; the “levels of N-cadherin-CTF1” value is reported as “unaffected; also recorded: remained unchanged”; the “levels of PS1 N- and C-terminal fragments, nicastrin, and pen-2” value is listed as “did not detect significant changes”; the “nicastrin maturation / maturation of γ-secretase complex” value is “unaffected; also recorded: did not alter maturation”. Further, the “expression of ApoE” value in data set [2] (non-transgenic littermates, soluble TBS fraction) is “unchanged; also recorded: did not alter expression levels”. For the same compound, the tolerated dose in data set [3] is listed as 150 mg/kg per day.
